Experimental data taken from US20230149432A1, “Human Milk Oligosaccharides for Improving Resistance of Organism Against Staphylococcus Aureus Infection” (Inner Mongolia Yili Industrial Group Co., Ltd., priority 2020, published 2023).

How the values were obtained:
[1] = test system: Staphylococcus aureus ATCC25923; assay: Nematode infection model and lifespan assay (survival of C. elegans infected by Staphylococcus aureus); assay type: in vivo, Caenorhabditis elegans; conditions: for dose-effect relationship of protection of nematode survival: doses up to 30 mg/mL
Protocol: Human milk oligosaccharide solutions were prepared with distilled water and incubated in Petri dishes containing a nematode growth medium at different final concentrations (1, 10, and 30 mg/mL, respectively). To better determine the range of the ideal concentration, a preliminary screening on the dose-effect relationship of 2′-FL was first performed, and the 2′-FL concentrations used were 0.001, 0.01, 0.1, 1 and 10 mg/mL. For the HMO compositions, included were a test concentration of 8 mg/mL and a 15 mg/mL, respectively, after the addition into the nematode growth medium.
Age-consistent nematodes were obtained and cultured in Petri dishes containing nematode agar media (nematode media containing E. coli OP50 as food) with different doses of HMO (1, 8, 10, 15, 30 mg/mL) for co-culture. After the nematodes came into adulthood, they were transferred to petri dishes inoculated with Staphylococcus aureus ATCC25923 (supplemented at approximately 10^8 to 10^9CFU/mL) to simulate the condition of infection by Staphylococcus aureus. The intervening substances (HMO) added in the infection stage of each group were the same as those in the culture stage. Two controls were used, one without the pathogen (C. elegans dish containing E. coli OP50) and one with Staphylococcus aureus infection without any intervention (dish with Staphylococcus aureus only). In addition, a group in which an intervening substance was added in the culture phase and no intervention in the infection phase, and a group in which the intervention substance was not added in the cultivation phase but added in the infection phase were set up.
Several days into the culture of the nematodes, their survival rate was counted on a daily basis. […] Two independent assays were carried out for each condition (that is, unless otherwise specified, the experimental data in the examples were the results of two independent experiments).
Statistical comparative analysis of survival curves was performed, and log rank survival significance analysis was performed using the GraphPad Prism 4 or GraphPad Prism 9 statistical software package. One-way ANOVA was used to analyze for significant differences in survival rates among the groups on the third or fifth day of infection. For the comparison of the groups, an asterisk*represents the degree of the significant difference, with ****indicating P<0.0001, and ***indicating P<0.001. NS means not significant.

[2] = test system: Staphylococcus aureus ATCC25923; assay: Disc diffusion bacteriostatic zone experiment; assay type: cell-based; conditions: positive control, 200 μg/mL; 37° C., 18 hours
Protocol: In order to determine whether the tested materials themselves have an antibacterial effect, a bacteriostatic zone experiment for disk diffusion was carried out. Discs were prepared with sterile filter paper impregnated with the tested HMO materials (10 mg/mL, 30 mg/mL), and the discs were dried overnight under sterile conditions. Staphylococcus aureus ATCC25923 (1.0×10^6CFU/mL) was spread evenly on the surface of a NGM agar plate, and then the discs were placed on the surface of the inoculated agar plate petri dish. Gentamicin (200 μg/mL) was used as a positive control. All dishes were incubated at 37° C. for 18 hours.
In order to investigate whether the protective effects of individual HMOs or their compositions against Staphylococcus aureus infection, as presented in previous tests, were derived from direct bactericidal or bacteriostatic function, a test was carried out in which the test material was incubated with the bacteria population and observed whether an bacteriostatic zone of was formed. As shown in the figure, at two different concentration (left: 10 mg/mL, right: 30 mg/mL), none of the human milk oligosaccharides alone formed a transparent annular bacteriostatic zone around the inoculation site. […]

[3] = 1 mg/mL, vs infected control without intervention
[4] = 10 mg/mL, vs infected control without intervention
[5] = 30 mg/mL, vs infected control without intervention

Row | Compound | effect on nematode survival rate after Staphylococcus aureus infection [1, 3] | effect on nematode survival rate after Staphylococcus aureus infection [1, 4] | effect on nematode survival rate after Staphylococcus aureus infection [1, 5] | dose-effect relationship of protection of nematode survival [1] | survival rate of nematodes compared with 2′-FL ([1]; infection for 3 days, 3-FL 10 mg/mL vs 2′-FL 30 mg/mL) | protection of nematodes compared with 2′-FL at the same dose ([1]; same dose, infection for 3 days) | effect on lifespan of nematodes after Staphylococcus aureus infection ([1]; 15 mg/mL) | effect on nematode survival rate after Staphylococcus aureus infection ([1]; 15 mg/mL, another batch of experiments) | effect on nematode survival rate after Staphylococcus aureus infection ([1]; doses at 1 mg/mL or less, survival curve vs infected control without intervention) | formation of a transparent annular bacteriostatic zone [2] | survival rate of nematodes ([1]; under protection of 6′-SL, 10 or 30 mg/mL, infected for 3 days)
1 | 3-fucosyllactose [Composition 3-FL] | no effect | better protective function (P<0.0001) | better protective function (P<0.0001) | greater protection shown at higher doses | the same effect was achieved with 3-FL at 10 mg/mL as that with 2′-FL at 30 mg/mL | more effective in protecting nematodes from Staphylococcus aureus infection than 2′-FL |  |  |  |  | 
2 | 2′-fucosyllactose [2′-FL] |  | considerable increase in nematode survival rate which was significant (P<0.0001) | the protective effect was significantly increased, and the effect was significant (P<0.0001) | dose-dependent and optimal at 30 mg/mL |  |  | significantly prolongs the lifespan of nematodes | significantly improves the survival rate of nematodes | did not show any effects |  | 
3 | CC(=O)N[C@H]1[C@H](O[C@H]2[C@@H](O)[C@@H](CO)O[C@@H](O[C@H]3[C@H](O)[C@@H](O)C(O)O[C@@H]3CO)[C@@H]2O)O[C@H](CO)[C@@H](O)[C@@H]1O[C@@H]1O[C@H](CO)[C@H](O)[C@H](O)[C@H]1O (stereo partly shown) [LNT, Lacto-N-Tetraose] | not greatly improved | significantly improved | significantly improved | has a dose-effect relationship |  |  |  |  |  |  | 
4 | Gentamicin |  |  |  |  |  |  |  |  |  | showed a bacteriostatic effect | 
5 | CC(=O)N[C@H]1[C@H]([C@H](O)[C@H](O)CO)O[C@@](O[C@H]2[C@@H](O)[C@@H](CO)O[C@@H](O[C@H]3[C@H](O)[C@@H](O)C(O)O[C@@H]3CO)[C@@H]2O)(C(=O)O)C[C@@H]1O (stereo partly shown) [3′-SL, 3′-sialyllactose] | no significant effect was observed | no significant effect was observed | no significant effect was observed |  |  |  |  |  |  |  | 
6 | CC(=O)N[C@H]1[C@H]([C@H](O)[C@H](O)CO)O[C@@](OC[C@H]2O[C@@H](O[C@H]3[C@H](O)[C@@H](O)[C@H](O)O[C@@H]3CO)[C@H](O)[C@@H](O)[C@H]2O)(C(=O)O)C[C@@H]1O [6′-SL, 6′-sialyllactose] | not greatly improved | significantly improved | significantly improved | has a dose-effect relationship |  |  |  |  |  |  | up to 75%
